Reference: ChEMBL document CHEMBL4177750, “Imidazopyrazinones (IPYs): Non-Quinolone Bacterial Topoisomerase Inhibitors Showing Partial Cross-Resistance with Quinolones” (J Med Chem, 2018)
≈ marks a conversion by molar mass, not a printed value. Calls of active or inactive are those of the source. The calls are words filed in the database; no cut-off is given here.

What was measured:
[1] = tested on: Escherichia coli; test: Antibacterial activity against Escherichia coli K-12 MG1655 after 20 to 22 hrs; details: K-12 substr. MG1655
[2] = tested on: Pseudomonas aeruginosa; test: Antibacterial activity against Pseudomonas aeruginosa PAO750 harboring mexAB-oprM/mexCD-oprJ/mexEF-oprN/mexXY/opmH/mexJK/pscC deletion mutant after 20 to 22 hrs; format: functional
[3] = tested on: Pseudomonas aeruginosa; test: Antibacterial activity against Pseudomonas aeruginosa PAO1 after 20 to 22 hrs; format: functional
[4] = tested on: Staphylococcus aureus; test: Antibacterial activity against methicillin-resistant Staphylococcus aureus ATCC 33592 after 20 to 22 hrs; format: functional
[5] = tested on: Escherichia coli; test: Antibacterial activity against hyperpermeable Escherichia coli D22 harboring LpxC mutant after 20 to 22 hrs
[6] = tested on: Escherichia coli; test: Antibacterial activity against tolC-deficient Escherichia coli K-12 MG1655 after 20 to 22 hrs; format: functional; details: K-12 substr. MG1655
[7] = tested on: Escherichia coli; test: Antibacterial activity against ESBL producing Escherichia coli ATCC 35218 after 20 to 22 hrs; format: functional
[8] = tested on: Staphylococcus aureus; test: Antibacterial activity against wild type Staphylococcus aureus RN4220 after 20 to 22 hrs; format: functional
[9] = tested on: Klebsiella pneumoniae; test: Antibacterial activity against Klebsiella pneumoniae 1161486 harboring GyrA S83F/D87V/ParC S80I triple mutant after 20 to 22 hrs; format: functional
[10] = tested on: Klebsiella pneumoniae; test: Antibacterial activity against wild type Klebsiella pneumoniae 1161486 after 20 to 22 hrs; format: functional
[11] = tested on: Staphylococcus aureus; test: Antibacterial activity against Staphylococcus aureus RN4220 harboring GyrB D437N mutant after 20 to 22 hrs; format: functional
[12] = tested on: Staphylococcus aureus; test: Antibacterial activity against Staphylococcus aureus RN4220 harboring ParC S80F/GyrA S84L double mutant after 20 to 22 hrs; format: functional
[13] = tested on: Klebsiella pneumoniae; test: Antibacterial activity against Klebsiella pneumoniae 1161486 harboring GyrA S83I mutant after 20 to 22 hrs; format: functional
[14] = tested on: Staphylococcus aureus; test: Antibacterial activity against Staphylococcus aureus RN4220 harboring GyrA D83N/ParC D79N double mutant after 20 to 22 hrs; format: functional
[15] = tested on: Klebsiella pneumoniae; test: Antibacterial activity against Klebsiella pneumoniae 1161486 harboring GyrA S83I/ParC S80I double mutant after 20 to 22 hrs; format: functional
[16] = tested on: Staphylococcus aureus; test: Antibacterial activity against Staphylococcus aureus RN4220 harboring ParC S80F mutant after 20 to 22 hrs; format: functional
[17] = tested on: Staphylococcus aureus; test: Antibacterial activity against Staphylococcus aureus RN4220 harboring GyrA D83N mutant after 20 to 22 hrs; format: functional
[18] = tested on: Escherichia coli; test: Antibacterial activity against tolC-deficient fluoroquinolones-resistant Escherichia coli W4753 clinical isolate harboring DNA gyrase S83L/D87N/ParC S80I/ParE S458A mutant after 20 to 22 hrs
[19] = tested on: Staphylococcus aureus; test: Antibacterial activity against methicillin-resistant Staphylococcus aureus ATCC 33592 after 20 to 22 hrs in presence of 50% mouse serum; format: functional, organism-based
[20] = tested on: Staphylococcus aureus; test: Antibacterial activity against methicillin-resistant Staphylococcus aureus ATCC 33592 after 20 to 22 hrs in presence of 50% calf fetal serum; format: functional, organism-based
[21] = tested on: L5178Y; test: Genotoxicity in mouse L5178Y cells after 23 hrs in absence of S9 fraction by micronucleus test; format: toxicity, cell-based
[22] = Metabolic stability in mouse plasma at 1 uM after 4 hrs; format: ADME, cell-free; details: read-out: Stability
[23] = tested on: Escherichia coli; test: Antibacterial activity against tolC-deficient fluoroquinolones-sensitive Escherichia coli JC7623 clinical isolate harboring wild type DNA gyrase after 20 to 22 hrs
[24] = Drug metabolism in rat liver microsomes at 5 uM after 20 mins in presence of NADPH; format: ADME, microsome; details: read-out: Drug metabolism
[25] = Metabolic stability in rat plasma at 1 uM after 4 hrs; format: ADME, cell-free; details: read-out: Stability
[26] = tested on: L5178Y; test: Genotoxicity in mouse L5178Y cells after 3 hrs in presence of S9 fraction by micronucleus test; format: toxicity, cell-based; details: s9, 3 h
[27] = Drug metabolism in mouse liver microsomes at 5 uM after 20 mins in presence of NADPH; format: ADME, microsome; details: read-out: Drug metabolism
[28] = Drug metabolism in human liver microsomes at 5 uM after 20 mins in presence of NADPH; format: ADME, microsome; details: read-out: Drug metabolism
[29] = target: DNA gyrase (Escherichia coli, UniProt P0AES4+P0AES6)
Description: Inhibition of Escherichia coli DNA gyrase A2B2 using relaxed pNO1 as substrate

[30] = target: hERG (KCNH2) (Homo sapiens, UniProt Q12809); test: Inhibition of human ERG transfected in CHO cells at 10 uM by patch clamp method relative to control; format: cell-based; details: CHO cells transfected with human ERG
hERG (KCNH2), sequence (Q12809 whole entry): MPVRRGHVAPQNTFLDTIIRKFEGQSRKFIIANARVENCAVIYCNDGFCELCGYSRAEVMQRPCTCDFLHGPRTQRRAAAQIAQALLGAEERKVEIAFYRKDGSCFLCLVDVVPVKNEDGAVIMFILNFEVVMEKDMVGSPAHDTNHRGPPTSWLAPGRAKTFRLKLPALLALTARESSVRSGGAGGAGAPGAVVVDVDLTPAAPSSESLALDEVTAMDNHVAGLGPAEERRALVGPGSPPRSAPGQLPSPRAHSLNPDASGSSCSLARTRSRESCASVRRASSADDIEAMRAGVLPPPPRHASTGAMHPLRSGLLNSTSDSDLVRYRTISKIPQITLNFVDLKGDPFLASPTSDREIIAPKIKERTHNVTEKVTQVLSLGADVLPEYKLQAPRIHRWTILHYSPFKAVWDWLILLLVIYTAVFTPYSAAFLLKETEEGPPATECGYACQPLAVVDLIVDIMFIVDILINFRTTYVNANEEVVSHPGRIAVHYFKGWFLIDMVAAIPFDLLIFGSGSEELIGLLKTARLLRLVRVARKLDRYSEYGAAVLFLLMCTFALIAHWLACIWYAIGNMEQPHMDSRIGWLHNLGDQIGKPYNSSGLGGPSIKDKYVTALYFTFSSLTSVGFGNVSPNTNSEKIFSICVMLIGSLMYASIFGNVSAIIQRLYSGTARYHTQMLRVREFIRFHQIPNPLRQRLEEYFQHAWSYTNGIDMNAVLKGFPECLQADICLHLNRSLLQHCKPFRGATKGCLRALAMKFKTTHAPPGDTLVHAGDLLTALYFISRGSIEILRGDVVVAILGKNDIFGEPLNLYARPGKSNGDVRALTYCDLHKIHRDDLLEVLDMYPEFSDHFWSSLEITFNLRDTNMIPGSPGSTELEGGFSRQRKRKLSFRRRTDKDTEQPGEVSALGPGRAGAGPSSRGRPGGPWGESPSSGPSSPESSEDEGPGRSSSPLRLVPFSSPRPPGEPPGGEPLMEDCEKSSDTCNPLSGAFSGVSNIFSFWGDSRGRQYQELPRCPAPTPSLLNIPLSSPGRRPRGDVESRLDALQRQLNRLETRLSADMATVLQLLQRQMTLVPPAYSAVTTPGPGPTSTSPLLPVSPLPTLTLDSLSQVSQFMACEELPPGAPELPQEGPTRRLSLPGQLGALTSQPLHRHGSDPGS

[31] = Solubility of the compound in water; format: physicochemical; details: buffer
[32] = Metabolic stability in human liver microsomes; format: ADME, microsome
[33] = Chemical stability in pH 7.4 buffer solution; format: physicochemical
[34] = Drug degradation in DMSO solution in presence of glutathione measured within 1 hr; format: physicochemical; details: DMSO solution with glutathione; read-out: Drug degradation
[35] = Metabolic stability in mouse liver microsomes; format: ADME, microsome
[36] = Drug degradation in DMSO solution in presence of mercaptoethanol measured within 1 hr; format: physicochemical; details: DMSO solution with mercaptoethanol; read-out: Drug degradation
[37] = Cytotoxicity against human HepG2 cells assessed as decrease in cell viability after 40 hrs by Celltiter Glo assay
[38] = Permeability across human Caco2 cells; format: ADME, cell-based; details: Caco-2
[39] = tested on: Staphylococcus aureus; test: Ratio of MIC for methicillin-resistant Staphylococcus aureus ATCC 33592 in presence of 50% mouse serum to MIC for methicillin-resistant Staphylococcus aureus ATCC 33592 in absence of 50% mouse serum; format: functional
[40] = tested on: Staphylococcus aureus; test: Ratio of MIC for methicillin-resistant Staphylococcus aureus ATCC 33592 in presence of 50% calf fetal serum to MIC for methicillin-resistant Staphylococcus aureus ATCC 33592 in absence of 50% calf fetal serum; format: functional

SMILES	MIC [1] [µg/mL]	MIC [2] [µg/mL]	MIC [3] [µg/mL]	MIC [4] [µg/mL]	MIC [5] [µg/mL]	MIC [6] [µg/mL]	MIC [7] [µg/mL]	MIC [18] [µg/mL]	MIC [23] [µg/mL]	further results
O=c1c2ncnn2c2cc(F)c(-c3ccncc3)cc2n1C1CC1	> 64	32 (≈ 99.6 µM)	> 64	16 (≈ 49.8 µM)	32 (≈ 99.6 µM)	< 0.125	32 (≈ 99.6 µM)			
O=c1c2nccn2c2cc(F)c(-c3cccnc3)cc2n1C1CC1	32 (≈ 99.9 µM)	4 (≈ 12.5 µM)	> 64	64 (≈ 200 µM)	8 (≈ 25 µM)	< 0.125	16 (≈ 49.9 µM)			
O=c1c2nccn2c2cc(F)c(-c3ccccn3)cc2n1C1CC1	> 64	> 64	> 64	> 64	> 64	4 (≈ 12.5 µM)	> 64			
O=C(O)c1cn(C2CC2)c2cc(N3CCNCC3)c(F)cc2c1=O [CIPROFLOXACIN]		< 0.125			< 0.125	< 0.125	< 0.125			MIC [8]: 0.25 µg/mL (≈ 0.754 µM); MIC [9]: 8 µg/mL (≈ 24.1 µM); MIC [10]: < 0.063 µg/mL; MIC [11]: 0.25 µg/mL (≈ 0.754 µM); MIC [12]: 64 µg/mL (≈ 193 µM); MIC [13]: 1 µg/mL (≈ 3.02 µM); MIC [14]: 1 µg/mL (≈ 3.02 µM); MIC [15]: 8 µg/mL (≈ 24.1 µM); MIC [16]: 1 to 2 µg/mL (≈ 3.02 to 6.04 µM); MIC [17]: 0.25 µg/mL (≈ 0.754 µM)
O=c1c2nccn2c2cc(F)c(-c3ccncc3)cc2n1C1CC1	32 (≈ 99.9 µM)	8 (≈ 25 µM)	> 64	4 (≈ 12.5 µM)		< 0.125	16 (≈ 49.9 µM)	0.5 (≈ 1.56 µM)	0.063 (≈ 0.197 µM)	Activity [19]: Active; Activity [20]: Active; Activity [21]: Toxic; remaining at 4 h, 1 µM [22]: 80 to 120%; metabolised at 20 min, 5 µM [24]: 68%; remaining at 4 h, 1 µM [25]: 80 to 120%; Activity [26]: Toxic; metabolised at 20 min, 5 µM [27]: 81%; metabolised at 20 min, 5 µM [28]: 13%
N[C@H]1CCN(c2cc3c(cc2F)c(=O)n(N)c(=O)n3C2CC2)C1	1 (≈ 3.13 µM)	< 0.125	32 (≈ 100 µM)	2 (≈ 6.26 µM)	0.5 (≈ 1.57 µM)	< 0.125	1 (≈ 3.13 µM)			
O=c1c2cncn2c2cc(F)c(-c3ccncc3)cc2n1C1CC1	> 64	32 (≈ 99.9 µM)	> 64	64 (≈ 200 µM)	64 (≈ 200 µM)	0.25 (≈ 0.78 µM)	64 (≈ 200 µM)			
N[C@H]1CCN(c2cc3c(cc2F)n2cncc2c(=O)n3C2CC2)C1	32 (≈ 97.8 µM)	1 (≈ 3.05 µM)	> 64	16 (≈ 48.9 µM)	16 (≈ 48.9 µM)	1 (≈ 3.05 µM)	16 (≈ 48.9 µM)			Activity [19]: Active; Activity [20]: Active
N[C@H]1CCN(c2cc3c(cc2F)c2nc[nH]c2c(=O)n3C2CC2)C1	64 (≈ 196 µM)	0.5 (≈ 1.53 µM)	64 (≈ 196 µM)	16 (≈ 48.9 µM)	16 (≈ 48.9 µM)	0.5 (≈ 1.53 µM)	16 (≈ 48.9 µM)			Activity [19]: Active; Activity [20]: Active
Cn1c(=O)c2nccn2c2/c(=C/c3ccncc3)c3ccccc3c21	> 64	> 64	> 64	> 64	> 64	< 0.125	> 64	0.25 (≈ 0.766 µM)	0.016 (≈ 0.049 µM)	
Cn1cc(-c2ccc(NC(=O)Cc3ccc(Cl)cc3)cc2)n2ccnc2c1=O	> 32	> 32	> 32	> 32	32 (≈ 81.5 µM)	1 (≈ 2.55 µM)	> 32	4 (≈ 10.2 µM)	0.125 (≈ 0.318 µM)	IC50 [29]: 6.35 µM
CNc1cc(=O)n(C)c2c1/C(=C/c1ccncc1)c1ccccc1-2								2 (≈ 6.34 µM)	1 (≈ 3.17 µM)	
CC(=O)Nc1ccc(/C=c2\c3ccccc3c3c2n2ccnc2c(=O)n3C)cc1	> 64	> 64	> 64	0.25 (≈ 0.654 µM)	> 64	< 0.125	> 64	2 (≈ 5.23 µM)	0.063 (≈ 0.165 µM)	inhibition at 10 µM [30]: > 50%; solubility [31]: Insoluble; Stability [32]: Unstable; Stability [33]: Stable; degraded at 1 h [34]: > 50%; Stability [35]: Unstable; degraded at 1 h [36]: > 50%; CC50 at 40 h [37]: 8.4 µM; permeability [38]: Impermeable; Ratio [39]: >32; Ratio [40]: >32
